Assay results reported in ChEMBL document CHEMBL2384993, “Multidimensional optimization of promising antitumor xanthone derivatives” (Bioorg Med Chem, 2013).
pIC50: −log10 of the molar value. Values after ≈ are worked out from the molar mass of the structure shown.

Columns and labels:
[1] = Micelles-buffer partition coefficient, log K of the compound after 30 mins at pH 7.4 by UV-vis spectrophotometric analysis; format: physicochemical; details: pH 7.4, 0.5 h
NCI-H460 = experiment: Growth inhibition of human NCI-H460 cells after 48 hrs by sulforhodamine B assay; format: functional; details: NCI-H460, 48 h
HL-60 [2] = experiment: Growth inhibition of human HL60 cells after 48 hrs by sulforhodamine B assay; format: functional; details: HL-60, 48 h
MCF7 = experiment: Growth inhibition of human MCF7 cells after 48 hrs by sulforhodamine B assay; format: functional; details: MCF7, 48 h
[3] = Growth inhibition of human A375-C5 cells after 48 hrs by sulforhodamine B assay; format: functional; details: A375-C5, 48 h
[4] = Thermodynamic solubility of the compound after 24 hrs at pH 7.4 by spectrophotometric analysis; format: physicochemical; details: buffer, read-out: Therm_solubility
[5] = Liposomes-buffer partition coefficient, log K of the compound after 30 mins at pH 7.4 by UV-vis spectrophotometric analysis; format: physicochemical; details: artificial membrane, pH 7.4, 0.5 h
HL-60 [6] = experiment: Cytotoxicity against human HL60 cells after 24 to 72 hrs by trypan blue exclusion assay; format: functional, cell-based

SMILES	log K [1]	GI50 (NCI-H460) [µM]	GI50 (HL-60 [2]) [µM]	GI50 (MCF7) [µM]	GI50 [3] [µM]	solubility thermodynamic at 24 h [4] [µM]	log K [5]	pIC50 (HL-60 [6])
COc1c2c(cc3c(=O)c4ccc(O)cc4oc13)OC(C)(C)C=C2	3.9	34.9	18.8	36.9	27.1	–	–	–
CC1(C)CCc2cc3c(=O)c4ccc(O)cc4oc3c(O)c2O1	3.76	59.1	57	82.5	40.7	0.62 (≈ 0.194 µg/mL)	3.32	–
COc1ccc2oc3c(O)c4c(cc3c(=O)c2c1)CCC(C)(C)O4	3.35	> 150	23.9	> 150	> 150	< 0.1	3.25	–
COc1cc2oc3c(OC)c4c(cc3c(=O)c2cc1OC)OC(C)(C)CC4	3.83	> 75	–	> 75	> 75	–	3.88	–
CCN(CC)c1ccc2c(=O)c3cc4c(c(OC)c3oc2c1)CCC(C)(C)O4	4.7	13.7	14.4	14.5	19.6	–	4.62	–
COc1c2c(cc3c(=O)c4cc(Cl)ccc4oc13)OC(C)(C)CC2	4.41	> 75	48.4	> 75	> 75	–	4.48	–
COc1c2c(cc3c(=O)c4ccccc4oc13)CCC(C)(C)O2	3.59	> 150	8.8	> 150	> 150	–	3.6	–
CC1(C)CCc2cc3c(=O)c4cc(Cl)ccc4oc3c(O)c2O1	4.39	> 150	9	> 150	> 150	< 0.1	–	–
CCN(CC)c1ccc2c(=O)c3cc4c(c(OC)c3oc2c1)C=CC(C)(C)O4	–	26.8	9.2	34.3	21.9	–	–	–
Cc1ccc2oc3c(O)c4c(cc3c(=O)c2c1)CCC(C)(C)O4	3.92	48.1	12.5	> 150	17.6	< 0.1	3.86	–
COc1cccc2c(=O)c3cc4c(c(O)c3oc12)OC(C)(C)CC4	3.58	41.1	27.3	–	68	0.23 (≈ 0.0751 µg/mL)	3.53	–
COc1ccc2oc3c(OC)c4c(cc3c(=O)c2c1)OC(C)(C)C=C4	4.21	> 150	–	> 150	> 150	–	–	–
COc1cccc2c1C(=O)c1c(O)c3c(c(O)c1C2=O)C[C@@](O)(C(=O)CO)C[C@@H]3O[C@H]1C[C@H](N)[C@H](O)[C@H](C)O1 [DOXORUBICIN]	–	0.0641	0.028	0.0654	0.145	–	–	–
COc1cc2oc3c(OC)c4c(cc3c(=O)c2cc1OC)CCC(C)(C)O4	3.88	> 100	72.3	> 100	> 100	–	–	–
COc1c2c(cc3c(=O)c4cc(C)ccc4oc13)CCC(C)(C)O2	4.01	30.9	5.14	31.8	29.7	–	4.02	–
COc1c2c(cc3c(=O)c4ccc(O)cc4oc13)CCC(C)(C)O2	3.49	> 150	8.3	> 150	> 150	–	3.43	–
CC1(C)CCc2cc3c(=O)c4ccccc4oc3c(O)c2O1 [DIHYDRO-12-HYDROXY-2,2-DIMETHYL-2H,6H-PYRANO[3,2-B]XANTHEN-6-ONE]	3.28	40.3	23.4	39.7	28.9	0.4 (≈ 0.119 µg/mL)	3.35	5.22
COc1c2c(cc3c(=O)c4cc(Cl)ccc4oc13)OC(C)(C)C=C2	4.34	> 150	14.1	> 150	> 150	–	–	–
COc1c2c(cc3c(=O)c4cc(C)ccc4oc13)OC(C)(C)C=C2	4.29	> 50	> 50	> 50	> 50	–	4.32	–
